The values that follow come from patent publication US9085562B2, “6-alkyl-N-(pyridin-2-yl)-4-aryloxypicolinamide analogs as mGluR5 negative allosteric modulators and methods of making and using the same” (Vanderbilt University, priority 2011, dated 2015).

Molecules are shown by their SMILES. Converted amounts (≈) assume the structure as drawn. Read-outs that look alike come from different tables or passages of the source.

One data set has as its system elevated plus maze. In words: Elevated plus maze. Format: in vivo. As to the method:
Test compounds (1) and (2) were administrated at the 10 mg/kg and 30 mg/kg doses described in this figure. […] Prospective In Vivo Effects

Data set [1] relates to Marble Burying Activity in Mice. In words: Inhibition of marble burying in mice (model of anxiolytic behavior). It counts as in vivo. As to conditions: WT and Fmrl KO C57BL/6J mice. On the procedure: It is well known that mice will bury foreign objects such as glass marbles in deep bedding (Deacon, R. M. J. Nature Protocols 2006, 1, 122-124). […] These facts along with the relative convenience of this assay make it a useful in vivo screening tool.
Doses of compound were suspended in vehicle (10% Tween 80 for intraperitoneal dosing and 0.5% methylcellulose for oral dosing), vortexed vigorously, heated gently with a Master Heat Gun (Master Appliance Corp., Racine, Wis.), and sonicated at 37° C. for 30 minutes. The pH was checked using 0-14 EMD strips and adjusted to approximately 7. All doses were administered at approximately 10 mL/kg.
Studies were conducted using male Harlan CD-1 mice (Harlan Sprague Dawley, Indianapolis, Ind.), weighing 30 to 35 grams. Subjects were housed in a large colony room under a 12 hour light/dark cycle (lights on at 6:00 a.m.) with food and water provided ad libitum. Test sessions were performed between 10:00 a.m. and 4:00 p.m. All dose groups consisted of ≧10 mice. All experiments were conducted in accordance with the National Institute of Health regulations of animal care covered in Principles of Laboratory Animal Care (National Institutes of Health publication 85-23, revised 1985) and were approved by the Institutional Animal Care and Use Committee.
Plexiglass cages (32×17×14 cm) were arranged on top of a large, round table. Mice were transported from the colony room to the testing room and allowed to habituate for 30 minutes. […] The novel compound and comparator were evaluated in a counterbalanced design, in which all doses of compounds were tested in each session. […] Clear, perforated plastic lids were set on top of each cage and the amount of marble burying was recorded over a 30 minute interval. The mice were then removed from the cages and the number of buried marbles was counted using the criteria of greater than ⅔ covered by bedding. […]
The data for the dose-response studies were analyzed by a between-group analysis of variance. […]

Data set [2] deals with N-methyl-D-aspartate (NMDA) receptor. As to conditions: at higher concentrations; cited from earlier work.
The test system of data set [3] is Marble Burying Activity in Mice. Particulars: literature (Spooren 2000; Nicolas 2006); cited from earlier work.
Another data set concerns the target mGluR4 (Homo sapiens, UniProt Q14833). As to conditions: cited from earlier work.
The nature of the next data set: Human PPB. It counts as in vitro ADME. The source says:
(§1) Additional physicochemical and pharmacological data are provided below in Tables 2-4 for Test Compounds 1 and 2 (Compounds […] and (2) as described herein).

Data set [4] is described as follows: Solubility in SGF and FaSSIF. It counts as physicochemical.
From the text: as §1

A further data set has as its target T1, mGluR5 (Rattus norvegicus, UniProt P31424).
T1 construct: expressed in transfected cells
In words: mGluR5 IC50 / NAM profile of Tables 2 and 4. Format: cell-based. Particulars: Table 2, line under mGluR5 IC50. As to the method: Human embryonic kidney (HEK) cells transfected with rat or human mGluR5 were plated in clear bottom assay plates for assay in a Functional Drug Screening System (FDSS). The cells were loaded with a Ca2+-sensitive fluorescent dye (e.g., Fluo-4), and the plates were washed and placed in the FDSS instrument. Test compound was applied to cells 3 seconds after baseline readings were taken. Cells were incubated with the test compounds for 140 seconds and then stimulated with an EC20 concentration of an mGluR5 agonist (e.g., glutamate, 3,5-dihydroxyphenylglycine, or quisqualate); 60-80 seconds later an EC80 concentration of agonist was added and readings taken for an additional 40 seconds. Data were collected at 1 Hz. […] Concentration response curves were generated using a four parameter logistical equation.

A short description of another data set: Permeability/efflux. It counts as in vitro ADME. Particulars: Table 2, Permeability/efflux.
From the text: as §1

The nature of data set [5]: Cynomolgus monkey IV/PO pharmacokinetics. Particulars: in vivo; for Cmax / Tmax: Cynomolgus monkey PO.
Data set [6] is described as follows: Mouse PO PK (plasma and brain concentration). Particulars: Mouse PO 10 mg/kg; for concentration at 0.25 h / concentration at 0.5 h / concentration at 1 h / concentration at 3 h: mouse, po, 10 mg/kg. It counts as in vivo.
From the text: as §1

A short description of the next data set: Mouse BHB. It counts as in vitro ADME.
From the text: as §1

Setting [7] is: SGF, pH 1.6, simulated gastric fluid.
The mark [8] stands for this setting: brain, read-out: Brain Concentration.
Where [9] appears, read: brain, read-out: Free Brain Concentration.
Setting [10] is: brain, 3 h, read-out: Brain Concentration.
The mark [11] stands for this setting: brain, 3 h, read-out: Free Brain Concentration.
The mark [12] stands for this setting: plasma, read-out: Plasma Concentration.

T1 sequence (P31424 21-1171 isoform P31424-2 limits assumed): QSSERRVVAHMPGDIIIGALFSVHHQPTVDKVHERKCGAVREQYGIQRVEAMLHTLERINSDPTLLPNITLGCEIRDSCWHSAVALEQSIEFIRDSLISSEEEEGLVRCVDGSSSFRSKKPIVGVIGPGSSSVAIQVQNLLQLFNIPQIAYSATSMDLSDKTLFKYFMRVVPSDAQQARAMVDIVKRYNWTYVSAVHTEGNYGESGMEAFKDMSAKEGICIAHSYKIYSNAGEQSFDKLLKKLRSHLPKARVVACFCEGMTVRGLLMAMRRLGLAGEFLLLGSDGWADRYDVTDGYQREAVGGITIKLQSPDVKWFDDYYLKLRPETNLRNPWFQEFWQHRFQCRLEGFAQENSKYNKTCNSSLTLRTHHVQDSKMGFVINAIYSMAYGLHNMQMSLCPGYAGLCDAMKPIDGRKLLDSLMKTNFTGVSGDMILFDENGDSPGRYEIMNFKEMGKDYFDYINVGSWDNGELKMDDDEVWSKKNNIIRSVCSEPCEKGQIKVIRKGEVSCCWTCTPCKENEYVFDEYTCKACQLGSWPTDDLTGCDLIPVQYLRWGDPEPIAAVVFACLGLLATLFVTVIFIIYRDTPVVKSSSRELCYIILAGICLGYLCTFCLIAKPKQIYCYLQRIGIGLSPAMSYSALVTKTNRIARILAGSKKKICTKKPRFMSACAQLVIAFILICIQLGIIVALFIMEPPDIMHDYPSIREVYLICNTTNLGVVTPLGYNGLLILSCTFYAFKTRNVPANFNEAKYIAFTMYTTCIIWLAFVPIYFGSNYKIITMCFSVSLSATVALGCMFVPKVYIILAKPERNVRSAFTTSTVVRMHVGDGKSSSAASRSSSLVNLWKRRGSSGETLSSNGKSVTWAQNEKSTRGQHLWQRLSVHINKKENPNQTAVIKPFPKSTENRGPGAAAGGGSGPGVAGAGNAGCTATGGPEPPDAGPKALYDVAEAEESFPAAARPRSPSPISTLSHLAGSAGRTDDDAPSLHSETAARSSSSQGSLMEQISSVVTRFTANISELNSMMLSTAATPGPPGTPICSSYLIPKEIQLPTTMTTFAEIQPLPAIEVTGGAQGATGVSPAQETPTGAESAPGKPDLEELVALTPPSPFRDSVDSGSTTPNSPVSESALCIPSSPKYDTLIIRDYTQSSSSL
Chain of mGluR4 (Q14833 33-912): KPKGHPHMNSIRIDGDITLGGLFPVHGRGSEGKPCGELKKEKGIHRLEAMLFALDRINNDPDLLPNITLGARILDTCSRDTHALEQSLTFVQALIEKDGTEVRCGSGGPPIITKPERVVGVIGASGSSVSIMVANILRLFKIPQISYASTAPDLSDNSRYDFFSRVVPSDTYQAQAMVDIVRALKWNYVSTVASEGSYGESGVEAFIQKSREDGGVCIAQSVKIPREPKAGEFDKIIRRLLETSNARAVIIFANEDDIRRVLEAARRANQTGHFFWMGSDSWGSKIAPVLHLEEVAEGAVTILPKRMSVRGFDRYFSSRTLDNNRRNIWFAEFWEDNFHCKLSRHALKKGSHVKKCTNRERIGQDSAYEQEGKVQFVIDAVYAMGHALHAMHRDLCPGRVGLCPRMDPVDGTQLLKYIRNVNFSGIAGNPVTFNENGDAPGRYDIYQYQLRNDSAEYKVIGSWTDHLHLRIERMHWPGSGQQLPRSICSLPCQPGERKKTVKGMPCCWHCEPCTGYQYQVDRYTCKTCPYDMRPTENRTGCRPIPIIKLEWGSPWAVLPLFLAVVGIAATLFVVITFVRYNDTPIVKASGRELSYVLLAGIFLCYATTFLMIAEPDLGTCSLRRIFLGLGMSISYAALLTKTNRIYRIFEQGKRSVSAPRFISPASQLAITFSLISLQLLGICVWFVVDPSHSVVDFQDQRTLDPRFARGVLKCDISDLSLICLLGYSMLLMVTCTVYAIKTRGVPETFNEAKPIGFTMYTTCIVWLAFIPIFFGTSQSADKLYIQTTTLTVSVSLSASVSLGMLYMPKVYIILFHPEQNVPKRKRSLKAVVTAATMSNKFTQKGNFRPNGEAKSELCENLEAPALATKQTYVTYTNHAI

On to `Cc1cc(Oc2cncc(F)c2)cc(C(=O)Nc2ccc(F)cn2)n1` [Compound (1), N-(5-fluoropyridin-2-yl)-4-((5-fluoropyridin-3-yl)oxy)-6-methylpicolinamide], for which the total distance traveled entry in the data set on elevated plus maze (10 mg/kg) and with elevated plus maze (30 mg/kg) was “statistically significant beneficial effect” throughout.

As for `Cc1cc(Oc2cncnc2)cc(C(=O)Nc2ccc(F)cn2)n1` [Compound (2), N-(5-fluoropyridin-2-yl)-6-methyl-4-(pyrimidin-5-yloxy)picolinamide], the “inhibition of marble burying vs. vehicle” value in data set [1] (3 mg/kg PO 15 min prior to testing, 0.5% MC, 30 min burying) is on record as “inhibition of marble burying was observed”. For the same compound, the “inhibition of marble burying vs. vehicle” value in [1] (10 mg/kg PO 15 min prior to testing, 0.5% MC, 30 min burying) is on record as “inhibition of marble burying was observed”. Moreover, in the data set with elevated plus maze (30 mg/kg), the “time spent in the open arms” value is listed as “statistically significant increase in the time spent in the open arms” and the total distance traveled result is “statistically significant beneficial effect”.

As to `Cc1cccc(C#Cc2ccccc2)n1` [MPEP, 2-methyl-6-(phenylethynyl)pyridine], in data set [2], the “effect on NMDA receptor activity” value is given as “directly inhibit the N-methyl-D-aspartate (NMDA) receptor activity”. Also, the “effect in marble burying model” value in data set [3] was “effective in this model”. Also, the “activity at mGluR4” value on mGluR4 was “positive allosteric modulator of mGluR4”.

With `Cc1nc(C#Cc2ccc(-c3cc(F)cc(C#N)c3)nc2)cs1` [STX107, reference compound], the “inhibition of marble burying vs. vehicle” value in data set [1] (positive control, 10 mg/kg free base IP 60 min ptx) is recorded as “inhibition of marble burying was observed”.

As for `Cc1cc(Oc2cncnc2)cc(C(=O)Nc2ccc(F)cn2)n1` [drawing 263, N-(5-fluoropyridin-2-yl)-6-methyl-4-(pyrimidin-5-yloxy)picolinamide], the “Human PPB, %” value in the data set “Human PPB” amounted to 91.4%. The concentration in solution in [4] (FaSSIF, pH 6.5, fassif) (solubility) was 47 µg/mL (≈ 144 µM). Also, the concentration in solution in [4] (setting [7]) (solubility) came to 205 µg/mL (≈ 630 µM). Moreover, on mGluR5, the “mGluR5 mode of action” value is “NAM”. In “Permeability/efflux”, the Permeability result is reported as “Predicted high” and the efflux entry was “no efflux”.

As for `Cc1cc(Oc2cncc(F)c2)cc(C(=O)Nc2ccc(F)cn2)n1` [drawing 264, N-(5-fluoropyridin-2-yl)-4-((5-fluoropyridin-3-yl)oxy)-6-methylpicolinamide], the “Human PPB, %” value in the data set “Human PPB” worked out at 98.5%. Besides, the solubility (commonly how much of the substance goes into solution per volume) in data set [4] (FaSSIF, pH 6.5, fassif) was 7 µg/mL (≈ 20.4 µM); in data set [4] (setting [7]), 70 µg/mL (≈ 204 µM). Further, the “mGluR5 mode of action” value on mGluR5 is “NAM”. The Permeability entry in the data set “Permeability/efflux” was “Predicted high”. In addition, the efflux result in “Permeability/efflux” was “no efflux”.

As to `Cc1cc(Oc2cncnc2)cc(C(=O)Nc2ccc(F)cn2)n1` [drawing 267], in data set [5] (Cynomolgus monkey IV/PO), the bioavailability (usually dose-corrected exposure relative to a reference, in per cent) was 42 to 45%; the clearance amounted to 15.4 mL/min/kg; the half-life (commonly how long it takes for the measured level to halve) is 362 min. For the same compound, the Vd in data set [5] (Cynomolgus monkey IV/PO, read-out: Vss) was 2.5 L/kg. In addition, in data set [5], the Cmax (usually the maximum level reached in the sampled fluid or tissue) was found to be 858 nM and the Tmax (usually the time from dosing to the highest level) was found to be 3 h.

For the compound `Cc1cc(Oc2cncc(F)c2)cc(C(=O)Nc2ccc(F)cn2)n1` [drawing 268], in data set [5] (Cynomolgus monkey IV/PO), the bioavailability is 25 to 45%, the clearance came to 13.2 mL/min/kg and the half-life is 563 min. Also, in data set [5], the Cmax stood at 1360 nM and the time to peak (Tmax) was determined as 2 h.

Turning to `Cc1cc(Oc2cncnc2)cc(C(=O)Nc2ccc(F)cn2)n1` [drawing 269], the “Plasma Concentration (nM)” value in data set [6] (1 h) and in data set [6] (3 h) was “BLQ” each time. For the same compound, the concentration at 0.25 h worked out at 195 nM in data set [6] (setting [8]), 15.2 nM in [6] (setting [9]) and 33.2 nM in [6] (setting [12]). Besides, the concentration at 0.5 h in [6] (setting [8]) was 345 nM; in data set [6] (setting [9]), 26.9 nM; in data set [6] (setting [12]), 77.4 nM. Further, the concentration at 1 h in [6] (brain, 1 h, read-out: Brain Concentration) was 9.9 nM; in [6] (brain, 1 h, read-out: Free Brain Concentration), 0.8 nM. Besides, the concentration at 3 h turned out to be 9.2 nM in data set [6] (setting [10]) and 0.7 nM in data set [6] (setting [11]). Moreover, the “Mouse BHB (%)” value in “Mouse BHB” was found to be 92.2%.

Take `Cc1cc(Oc2cncc(F)c2)cc(C(=O)Nc2ccc(F)cn2)n1` [drawing 270]: the “Brain Concentration (nM)” value in [6] (1 h) was “BLQ”. For the same compound, the “Plasma Concentration (nM)” value in [6] (1 h) is given as “BLQ”. In addition, the concentration at 0.25 h in data set [6] (setting [8]) was found to be 176 nM; in data set [6] (setting [9]) it was 2.6 nM; in data set [6] (setting [12]), 48.3 nM. The concentration at 0.5 h came to 143 nM in [6] (setting [8]), 2.1 nM in data set [6] (setting [9]) and 30.7 nM in data set [6] (setting [12]). The concentration at 3 h was 19.6 nM in [6] (setting [10]); 0.3 nM in [6] (setting [11]); 3.2 nM in data set [6] (plasma, 3 h, read-out: Plasma Concentration). In addition, in the data set “Mouse BHB”, the “Mouse BHB (%)” value was determined as 98.5%.

Consider `CN1CC(=O)N=C1NC(=O)Nc1cccc(Cl)c1` [fenobam, 1-(3-chlorophenyl)-3-(1-methyl-4-oxo-4,5-dihydro-1H-imidazol-2-yl)urea], for which the “effect in marble burying model” value in data set [3] was “effective in this model”.
